Source: patent publication US20100093613A1, “METHODS FOR IDENTIFYING AGENTS AND THEIR USE FOR THE PREVENTION OR STABILIZATION OF FIBROSIS” (priority 2007, published 2010)

Experiments:
Fibroblasts [1] = assay: BioMAP HDF3CT system (IL-1β + TNF-α + IFN-γ + TGF-β), scoring of readout parameters; type: cell-based, human
Description: (§1) Each screened compound is scored according to its modulation of the selected readout parameters. Compounds receive a positive score (score of 1) or negative score (score of 0) for each readout parameter set forth in Table 2 that is modulated in the desired direction. […] Parameters may be penalized by making the positive score a −1 for parameters where regulation is opposite to the desired direction.
(§2) Cell culture. Human umbilical vein endothelial cells (HUVEC) were pooled from multiple donors, cultured according to standard methods, and plated into microtiter plates at passage 4. Cell culture medium for all systems containing HUVEC included hydrocortisone. Coronary artery smooth muscle cells (CASM3C) and umbilical artery smooth muscle cells (HSM3C) were cultured according to standard procedures. Peripheral blood mononuclear cells (PBMC) were prepared from buffy coats from normal human donors according to standard methods. Monocyte-derived macrophages were differentiated in the presence of M-CSF for 7 d according to standard procedures. Human dermal fibroblasts were pooled from 3 donors, cultured according to standard methods, and plated confluent 24 h before stimulation. Cell culture medium for all systems containing fibroblasts and keratinocytes contained low hydrocortisone. Epidermal keratinocytes and bronchial epithelial cells from 3 donors were cultured according to standard procedures and pooled when plated into microtiter plates. For keratinocyte-fibroblast co-cultures, cells were plated simultaneously 24 h before stimulation. For bronchial epithelial cell-fibroblast co-cultures, fibroblasts were plated and cultured 48 before addition of epithelial cells, then cultured another 24 hr before stimulation. Concentrations/amounts of agents added to confluent microtiter plates to build each system: cytokines (IL-1β, 1 ng/ml; TNF-α, 5 ng/ml; IFN-γ, 20 ng/ml; IL-4, 5 ng/ml), activators (SAg, 20 ng/ml; histamine, 10 μM; zymosan, 10 μg/ml; or LPS, 2 ng/ml), growth factors (TGF-β, 5 ng/ml; EGF, bFGF, and PDGF-BB, 10 ng/ml), and PBMC (7.5×10^4 cells/well) or macrophages (3.5×10^4 cells/well).
(§3) Compounds. Compounds were prepared in the solvent directed, added 1 hr before stimulation of the cells, and were present during the 24 hr stimulation period for the measurement of parameters listed in Table 2. For proliferation, compounds added 1 hr before stimulation of the cells with cytokines, and were present during the 48 to 72 hr assay. If prepared in DMSO, the final concentration of solvent was 0.1% or less.
(§4) Readout Parameter Measurements. The levels of readout parameters were measured by ELISA. Briefly, microtiter plates are treated, blocked, and then incubated with primary antibodies or isotype control antibodies (0.01-0.5 microg/ml) for 1 hr. After washing, plates were incubated with a peroxidase-conjugated anti-mouse IgG secondary antibody or a biotin-conjugated anti-mouse IgG antibody for 1 hr followed by streptavidin-HRP for 30 min. Plates were washed and developed with TMB substrate and the absorbance (OD) was read at 450 nm (subtracting the background absorbance at 650 nm). Quantitation of TNF-alpha or PGE2 in the LPS system was done using a commercially available kit according to the manufacturer's directions. Proliferation of endothelial cells (HUVEC and CAEC), smooth muscle cells (SMC and CASMC), and PBMC (T cells) was quantitated by Alamar Blue reduction or SRB.
(§5) Data analysis. Mean OD values for each parameter were calculated for compounds run in duplicate. The mean value (or single well OD value) for each parameter in a treated sample was then divided by the mean value from an appropriate control to generate a ratio. All ratios were then log10 transformed. 95% significance prediction envelopes (grey shading in Figures) were calculated for historical controls.

human primary cells = assay: Total score for desired parameter modulation over the BioMAP systems of Table 1; type: cell-based; conditions: penalties not applied
Description: as §1
The relative importance of each parameter may be weighted by the screener to select those parameters of greatest interest for a particular application.
(§6) Compounds were first selected to inhibit PAI-1 in the HDFT as an indication of TBF-b signaling inhibition without being cytotoxic. […] Blank spots in Table 3 were where parameter was not assayed. Penalties were not applied for this scoring.
BioMAP Systems are designed to model complex human disease biology in a practical in vitro format. This is achieved by stimulating human primary cells (single cell type or defined mixtures of cell types) such that multiple disease-relevant signaling pathways are simultaneously active. The choice of cell types and stimulations is guided by the knowledge of disease biology and mechanisms. Incorporating appropriate cell types and stimulating signaling pathways relevant to disease states allows association of biological activities detected in BioMAP Systems with disease processes. Drug effects are then recorded by measuring biologically meaningful protein readouts that provide coverage of biological space of interest (e.g., inflammation, tissue remodeling) and allow discrimination between different drug classes tested.
as §2, §3
Readout Parameter Measurements. The levels of readout parameters were measured by ELISA.

[2] = system: Bronchial epithelial cells; assay: BioMAP BE4T system (IL-4 + TNF-a), scoring of readout parameters; type: cell-based, human; design: key: 1 = modulated in desired direction, 0 = not (−1 = opposite); conditions: for PAI-1 score: desired change decrease; for EGFR score: desired no change or increase
Experimental: In the “BE4T” system, bronchial epithelial cells, usually primary human bronchial epithelial cells, are cultured in the presence of TNF-α and IL-4.
as §1, §2, §3, §4, §5

Fibroblasts [3] = assay: BioMAP HDFT system (TGF-β), scoring of readout parameters; type: cell-based, human; design: key to PAI-1 score: 1 = modulated in desired direction, 0 = not (no penalties applied); conditions: for PAI-1 score: HDFT, desired change decrease; for inhibit PAI-1 in the HDFT system: indication of TGF-b signaling inhibition without being cytotoxic
Description: as §1, §6, §2, §3, §4
Data analysis. Mean OD values for each parameter were calculated for compounds run in duplicate. The mean value (or single well OD value) for each parameter in a treated sample was then divided by the mean value from an appropriate control to generate a ratio.

Row | Compound | MMP-1 score (Fibroblasts [1]) | Score (Fraction correctly modulated parameters out of 45-58 total) (human primary cells) | uPA score [2] | PAI-1 score [2] | EGFR score [2] | PAI-1 score (Fibroblasts [3]) | inhibit PAI-1 in the HDFT system (Fibroblasts [3])
1 | Cn1cnc([N+](=O)[O-])c1Sc1ncnc2nc[nH]c12 [Azathioprine] | 0 | 0.12 | 0 | 0 | 0 | 0 | none of these inhibit PAI-1
2 | CCc1oc2ccccc2c1C(=O)c1cc(Br)c(O)c(Br)c1 [Benzbromarone] | 0 | 0.36 | 1 | 0 | 0 | 1 | –
3 | C=C1CC[C@H](O)C/C1=C/C=C1\CCC[C@]2(C)[C@@H]([C@H](C)/C=C/[C@H](C)C(C)C)CC[C@@H]12 [Calciferol] | 0 | 0.29 | 1 | 0 | 0 | 1 | –
4 | COc1cc2c(c(OC)c1OC)-c1ccc(OC)c(=O)cc1[C@@H](NC(C)=O)CC2 [Colchicine] | 0 | 0.17 | 1 | 0 | 0 | 0 | none of these inhibit PAI-1
5 | O=C(O)c1ccccc1Nc1cccc(C(F)(F)F)c1 [Flufenamic Acid] | 1 | 0.28 | 0 | 1 | 0 | 1 | –
6 | Fc1ccc(C(OCCN2CCN(CCCc3ccccc3)CC2)c2ccc(F)cc2)cc1 [GBR 12909] | 0 | 0.29 | 0 | 0 | 0 | 1 | –
7 | CCCCN(CCCC)CCC(O)c1cc2c(Cl)cc(Cl)cc2c2cc(C(F)(F)F)ccc12 (stereo not drawn) [Halofantrine] | 0 | 0.27 | 0 | 0 | 0 | 1 | –
8 | CCN(CC)CCNc1ccc(CO)c2sc3ccccc3c(=O)c12 [Hycanthone] | 0 | 0.28 | 0 | 1 | 0 | 1 | –
9 | O=c1cc(-c2ccc(O)c(O)c2)oc2cc(O)cc(O)c12 [Luteolin] | 0 | 0.36 | 0 | 0 | 0 | 1 | –
10 | COC(=O)Nc1nc2ccc(SC(C)C)cc2[nH]1 [Methiazole] | 0 | 0.55 | 0 | 1 | 0 | 1 | –
11 | C[C@]12C=CC(=O)C=C1CC[C@@H]1[C@@H]2[C@@H](O)C[C@@]2(C)[C@H]1CC[C@]2(O)C(=O)CO [Prednisolone] | 0 | 0.17 | 0 | 0 | 0 | 0 | none of these inhibit PAI-1
12 | Cc1c(Cl)cccc1Nc1ccccc1C(=O)O [Tolfenamic Acid] | 1 | 0.33 | 0 | 0 | 0 | 1 | –
13 | COc1cc(-c2ccc(=O)[nH]n2)ccc1OC(F)F [Zardaverine] | 0 | 0.25 | 0 | 0 | 0 | 1 | –
14 | (R)-(−)-Apomorphine | 0 | 0.31 | 0 | 0 | 0 | 1 | –
15 | Antimycin A | 0 | 0.45 | 0 | 1 | 0 | 1 | –
